{"source": "patent US10759779B2", "about": "“Crystalline form of orexin receptor antagonist, processes for preparation thereof and use thereof” (priority 2017, dated 2020)", "format_in_all_cases": "physicochemical", "key": {"[1]": {"assay": "Flowability (bulk/tapped density, compressibility index)", "details": "for Compressibility index: c=(ρf−ρ0)/ρf*100%; for Flowability: class by compressibility index", "description": "Compressibility, also known as compressibility index is usually used to evaluate the flowability of powder and granular intermediates during the formulation process. A certain amount of powder was added into a measuring cylinder and bulk volume was recorded. Then the measuring cylinder was tapped to make the powder in the tightest state and the tapped volume was recorded. The bulk density (ρ0), tapped density (ρf) were calculated, and compressibility index was calculated according to c=(ρf−ρ0)/ρf. Compressibility index or Carr Index is an important indicator for evaluating the flowability of powder.\nCompressibility index test method is as follows: Compressibility index was calculated according to bulk density ρ0 and tapped density ρf of Form CS2 and the amorphous solid of the prior art with c=(ρf−ρ0)/ρf*100%."}, "[2]": {"assay": "Grinding stability of Form CS2", "details": "ground manually for 5 minutes in a mortar, XRPD", "description": "Form CS2 was ground manually for 5 minutes in a mortar. The XRPD pattern of the solids before and after grinding are presented in FIG. 12 (top: XRPD pattern before grinding; bottom: XRPD pattern after grinding). […] Form CS2 has good grinding stability."}, "[3]": {"assay": "Hygroscopicity by dynamic vapor sorption (DVS)", "description": "Thermo gravimetric analysis (TGA) data in the present disclosure were acquired by a TA Q500. The parameters of the TGA method of the present disclosure were as follows: • Heating rate: 10° C./min • Purge gas: nitrogen • Dynamic Vapor Sorption (DVS) is measured via a SMS (Surface Measurement Systems Ltd.) intrinsic DVS instrument. Typical Parameters for DVS test are as follows: • Temperature: 25° C. • Gas and flow rate: N2, 200 mL/min • dm/dt: 0.002%/min • RH range: 0% RH to 95% RH\nDynamic vapor sorption (DVS) was applied to measure hygroscopicity of Form CS2 with about 10 mg of samples. The weight gains at each relative humidity were recorded in a cycle of 0-95%-0 RH. The XRPD pattern overlay of Form CS2 before and after DVS test is presented in FIG. 14 (top: XRPD pattern before DVS; bottom: XRPD pattern after DVS). […] The weight gain under 80% RH is 0.21%."}, "[4]": {"assay": "Adhesiveness (material sticking to the punch)", "details": "30 mg, φ8 mm round tooling, 10 KN, 30s", "description": "30 mg of Form CS2 was weighed and added into the dies of φ8 mm round tooling, tableted at 10 KN and held for 30s. The amount of material sticking to the punch was weighed. The compression was repeated twice and the cumulative amount, maximum amount and average amount of material sticking to the punch during the compression process were recorded."}, "[5]": {"assay": "Compressibility (tablet hardness, tensile strength)", "description": "80 mg of Form CS2 was weighted and added into the dies of φ6 mm round tooling, compressed at 10 KN. The round tablet was stored in a desiccator for 24 hours until complete elastic recovery. Hardness (H) was tested with a tablet hardness tester. Diameter (D) and thickness (L) were tested with caliper. Tensile strength of the powder was calculated with the following formula: T=2H/πDL. Under a certain force, the greater the tensile strength, the better the compressibility."}, "[6]": {"details": "80 mg tablet, φ6 mm, 10 KN, after 24 hours"}}}
{"molecule": "Cc1ncc(OC[C@@]2(c3cccc(F)c3)C[C@H]2C(=O)Nc2ccc(F)cn2)c(C)n1", "note": "[Amorphous solid, (1R,2S)-2-{[(2,4-dimethylpyrimidin-5-yl)oxy]methyl}-2-(3-fluorophenyl)-N-(5-fluoropyridin-2-yl)cyclopropanecarboxamide, reference compound]", "values": [{"measurement": "Bulk density (ρ0)", "setting": "[1]", "value": 0.196, "unit": "g/mL"}, {"measurement": "Tapped density (ρf)", "setting": "[1]", "value": 0.274, "unit": "g/mL"}, {"measurement": "Compressibility index", "setting": "[1]", "value": 28, "unit": "%"}, {"measurement": "Flowability", "setting": "[1]", "value": "Poor"}]}
{"molecule": "Cc1ncc(OC[C@@]2(c3cccc(F)c3)C[C@H]2C(=O)Nc2ccc(F)cn2)c(C)n1", "note": "[Form CS2, (1R,2S)-2-{[(2,4-dimethylpyrimidin-5-yl)oxy]methyl}-2-(3-fluorophenyl)-N-(5-fluoropyridin-2-yl)cyclopropanecarboxamide]", "values": [{"measurement": "Crystalline form after grinding", "setting": "[2]", "value": "does not change after grinding"}, {"measurement": "Weight gain under 80% Relative Humidity", "setting": "[3]; DVS, 25° C.", "value": 0.21, "unit": "%"}, {"measurement": "Crystalline form after DVS", "setting": "[3]; cycle of 0-95%-0 RH, XRPD", "value": "does not change after DVS"}, {"measurement": "Bulk density (ρ0)", "setting": "[1]", "value": 0.263, "unit": "g/mL"}, {"measurement": "Tapped density (ρf)", "setting": "[1]", "value": 0.351, "unit": "g/mL"}, {"measurement": "Compressibility index", "setting": "[1]", "value": 25, "unit": "%"}, {"measurement": "Flowability", "setting": "[1]", "value": "Passable (21-25)"}, {"measurement": "Average amount of material sticking to the punch", "setting": "[4]", "value": 0.22, "unit": "mg"}, {"measurement": "Cumulative amount of material sticking to the punch", "setting": "[4]", "value": 0.44, "unit": "mg"}, {"measurement": "Maximum amount of material sticking to the punch", "setting": "[4]", "value": 0.74, "unit": "mg"}, {"measurement": "Diameter", "setting": "[5]; [6]", "value": 6.06, "unit": "mm"}, {"measurement": "Hardness", "setting": "[5]; [6]", "value": 8.4, "unit": "N"}, {"measurement": "Thickness", "setting": "[5]; [6]", "value": 2.40, "unit": "mm"}, {"measurement": "Tensile strength", "setting": "[5]; T=2H/πDL", "value": 0.37, "unit": "MPa"}]}
